Measured values as given in patent US7888504B2, “Glucokinase activators and methods of using same” (Bristol-Myers Squibb Company, priority 2006, dated 2011).

Experiments:
[1] = molecular target: T1, Human Glucokinase (Homo sapiens, UniProt P35557); test: tandem Glucokinase activation assay (uncoupled); assay type: biochemical; conditions: 12 mM glucose; human full-length GK 15 nM
T1 construct: Full-length human hepatic GK (untagged); made in house; host or cells: E. coli BL21 STAR (DE3)pLysS
T1 sequence (P35557 1-466 isoform P35557-2): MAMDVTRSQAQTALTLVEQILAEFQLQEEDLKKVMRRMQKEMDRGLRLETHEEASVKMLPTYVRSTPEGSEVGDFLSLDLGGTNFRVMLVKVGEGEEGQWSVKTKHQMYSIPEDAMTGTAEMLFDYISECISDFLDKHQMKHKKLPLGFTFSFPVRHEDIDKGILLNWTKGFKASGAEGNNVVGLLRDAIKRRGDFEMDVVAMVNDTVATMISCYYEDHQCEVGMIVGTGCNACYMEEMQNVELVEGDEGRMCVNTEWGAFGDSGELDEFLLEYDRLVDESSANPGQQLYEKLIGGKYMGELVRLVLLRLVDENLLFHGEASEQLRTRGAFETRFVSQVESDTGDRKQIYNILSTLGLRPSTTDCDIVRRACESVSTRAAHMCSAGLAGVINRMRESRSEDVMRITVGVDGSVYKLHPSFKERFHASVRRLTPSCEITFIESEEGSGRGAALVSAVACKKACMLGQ
Protocol: A tandem Glucokinase activation assay (uncoupled) was used to assess the activity of glucokinase (GK) in the presence of GK activator compounds. The below-described tandem assay protocol was followed using a range of activator compound concentrations from 0 to 100 µM at 5 and 12 mM concentrations of glucose. Human full-length GK (15 nM) was incubated with 5 or 12 mM glucose in 384 well black microtiter plates with a clear bottom. To initiate the GK reaction, magnesium-ATP (3 mM final concentration) was added to the protein in buffer, under the final buffer conditions of 25 mM HEPES buffer, pH 7.1, containing 1 mM DTT (dithiothreitol) and […]. The total reaction volume was 20 μL. The reaction was allowed to proceed for ten minutes and was then quenched with 5 μL EDTA (ethylenediamine tetra-acetic acid; 45 mM final). The components of the detection reaction, ThioNAD (thio-nicotinamide adenine dinucleotide) and G6PDH (glucose-6-phosphate dehydrogenase) (final concentrations of 650 μM and 3.33 Units, respectively), were then added together in a volume of 25 μL, and a total volume of 50 μL. Absorbance was read and activation calculated as a percentage of background activity, ie., GK in the presence of DMSO, with background glucose-6-phosphate subtracted. Absorbance measurements were made at 405 nm on a Spectramax Plus 384 absorbance plate reader (Molecular Devices). Background glucose-6-phosphate was determined by pre-quenching GK with EDTA prior to reaction initiation with ATP.
Expression and Purification of Human GK
Full-length human hepatic GK (untagged) as expressed in BL21 STAR (DE3)pLysS cells (Invitrogen) at 25° C. as described by Mookhtiar et al.^1 The protein was purified essentially as described by Lange^2 with a slight modification. Cell pellets were lysed via three rounds of freezing and thawing, centrifuged at 15000 g for clarification, and precipitated with 40-65% (NH4)2SO4. The resulting pellet was re-suspended in buffer dialyzed, and applied directly to a Q-Sepharose (Sigma) column followed by elution with a linear 100-600 mM KCl gradient. GK containing fractions were pooled, dialyzed overnight vs. 25 mM HEPES pH 7.2/1 mM MgCl2/1 mM EDTA/0.1 M KCl/1 mM DTT, then dialyzed again with the same buffer with 10% glycerol added. ^1Mookhtiar, K. A., Kalinowski, S. S., Brown, K. S., Tsay, Y. H., Smith-Monroy, C., and Robinson, G. W. (1996) “Heterologous expression and characterization of rat liver glucokinase regulatory protein”, Diabetes 45:1670-1677.^2Lange, A. J., Xu, L. Z., Van Poelwijk, F., Lin, K., Granner, D. K., and Pilkis, S. J. (1991) “Expression and site-directed mutagenesis of hepatic glucokinase”, Biochem. J., 277:159-163.

[2] = system: DIO mice; test: Oral glucose tolerance test (OGTT) in DIO mice; assay type: in vivo; conditions: male DIO C57BL/6J mice, 60 mg/kg oral, given 60 min before 2 g/kg glucose, ΔAUC 0-120 min
Protocol: In Vivo Studies: Oral Glucose Tolerance Test (OGTT)
Oral glucose tolerance tests were carried out on male DIO (diet-induced obese C57BL/6J mice fed a high fat diet (60% kcal from fat) for 26 weeks prior to experimentation. Mice were fasted overnight before use for experiments. A test compound or vehicle (10% dimethyl acetamide+10% ethanol+10% Cremophore+70% water) was given orally 60 min before oral administration of a glucose solution at a dose of 2 g/kg body weight (oral glucose tolerance test; OGTT). Blood glucose levels were measured from tail-bled samples taken at different time points before and after administration of glucose (time course of 2 hours). A time curve of the blood glucose was generated and the change from baseline area-under-the curve (ΔAUC) from 0-120 min was calculated (the time glucose administration being time zero).

| EC50 [1] [nM] | SMILES | reduction of glucose AUC levels in an OGTT [2] [%] |
| --- | --- | --- |
| 3960 | CS(=O)(=O)c1ccc([C@@H](CC2CCCC2)C(=O)Nc2ncc(Oc3ccccc3C(N)=O)s2)cc1 [Example 24] | – |
| 39 | O=C(Nc1ncc(Oc2cccc(C(=O)N3CCC3)c2)s1)[C@H](CC1CCOCC1)c1ccc(S(=O)(=O)C2CC2)cc1 [Example 18] | – |
| 858 | CS(=O)(=O)c1ccc([C@@H](CC2CCCC2)C(=O)Nc2ncc(Oc3cccc(C(N)=O)c3)s2)cc1 [Example 21] | – |
| 753 | CS(=O)(=O)c1ccc([C@@H](CC2CCCC2)C(=O)Nc2ncc(Oc3cncc(C(=O)O)c3)s2)cc1 [Example 8] | – |
| 38 | O=C(Nc1ncc(Oc2cccc(C(=O)N3CC(O)C3)c2)s1)[C@H](CC1CCOCC1)c1ccc(S(=O)(=O)C2CC2)cc1 [Example 19] | – |
| 8700 | CS(=O)(=O)c1ccc([C@@H](CC2CCCC2)C(=O)Nc2ncc(Oc3ccc(C#N)cc3)s2)cc1 [Example 20] | – |
| – | CS(=O)(=O)c1ccc([C@@H](CC2CCCC2)C(=O)Nc2ncc(Oc3ccc(C(=O)O)cc3)s2)cc1 [Example 9] | 37 |
